Reference: ChEMBL document CHEMBL4627288, “Recent advances in TRPV4 agonists and antagonists” (Bioorg Med Chem Lett, 2020)

What was measured:
[1] = biological target: Transient receptor potential cation channel subfamily V member 4 (Mus musculus, UniProt Q9EPK8); experiment: Agonist activity at mouse TRPV4
[2] = biological target: T1, Transient receptor potential cation channel subfamily V member 4 (Homo sapiens, UniProt Q9HBA0); experiment: Antagonist activity at human TRPV4
[3] = biological target: T1, Transient receptor potential cation channel subfamily V member 4; experiment: Antagonist activity at TRPV4 (unknown origin)

T1 sequence (Q9HBA0 whole entry): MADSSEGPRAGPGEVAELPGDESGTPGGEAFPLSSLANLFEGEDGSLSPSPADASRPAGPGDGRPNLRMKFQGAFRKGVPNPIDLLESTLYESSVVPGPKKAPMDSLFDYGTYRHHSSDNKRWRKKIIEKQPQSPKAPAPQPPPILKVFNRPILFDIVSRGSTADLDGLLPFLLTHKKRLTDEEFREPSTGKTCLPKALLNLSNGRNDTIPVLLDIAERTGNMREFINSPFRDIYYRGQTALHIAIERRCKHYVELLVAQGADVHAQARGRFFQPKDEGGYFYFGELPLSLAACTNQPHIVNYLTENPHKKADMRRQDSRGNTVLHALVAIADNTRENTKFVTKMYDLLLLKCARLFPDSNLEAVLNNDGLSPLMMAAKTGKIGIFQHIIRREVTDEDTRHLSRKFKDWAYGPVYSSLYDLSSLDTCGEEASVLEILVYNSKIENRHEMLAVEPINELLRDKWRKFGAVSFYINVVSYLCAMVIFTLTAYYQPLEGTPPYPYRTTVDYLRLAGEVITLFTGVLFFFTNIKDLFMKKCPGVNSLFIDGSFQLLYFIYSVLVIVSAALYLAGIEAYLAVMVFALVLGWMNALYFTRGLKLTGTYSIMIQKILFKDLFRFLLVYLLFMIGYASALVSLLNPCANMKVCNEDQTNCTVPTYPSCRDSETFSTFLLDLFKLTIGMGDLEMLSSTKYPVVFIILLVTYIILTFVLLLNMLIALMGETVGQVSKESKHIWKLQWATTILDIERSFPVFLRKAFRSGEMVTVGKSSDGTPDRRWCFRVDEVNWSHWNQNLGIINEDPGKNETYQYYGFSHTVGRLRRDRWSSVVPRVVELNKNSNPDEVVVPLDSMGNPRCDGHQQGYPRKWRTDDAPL
Sequence of Transient receptor potential cation channel subfamily V member 4 (Mus musculus, UniProt Q9EPK8) (Q9EPK8 whole entry): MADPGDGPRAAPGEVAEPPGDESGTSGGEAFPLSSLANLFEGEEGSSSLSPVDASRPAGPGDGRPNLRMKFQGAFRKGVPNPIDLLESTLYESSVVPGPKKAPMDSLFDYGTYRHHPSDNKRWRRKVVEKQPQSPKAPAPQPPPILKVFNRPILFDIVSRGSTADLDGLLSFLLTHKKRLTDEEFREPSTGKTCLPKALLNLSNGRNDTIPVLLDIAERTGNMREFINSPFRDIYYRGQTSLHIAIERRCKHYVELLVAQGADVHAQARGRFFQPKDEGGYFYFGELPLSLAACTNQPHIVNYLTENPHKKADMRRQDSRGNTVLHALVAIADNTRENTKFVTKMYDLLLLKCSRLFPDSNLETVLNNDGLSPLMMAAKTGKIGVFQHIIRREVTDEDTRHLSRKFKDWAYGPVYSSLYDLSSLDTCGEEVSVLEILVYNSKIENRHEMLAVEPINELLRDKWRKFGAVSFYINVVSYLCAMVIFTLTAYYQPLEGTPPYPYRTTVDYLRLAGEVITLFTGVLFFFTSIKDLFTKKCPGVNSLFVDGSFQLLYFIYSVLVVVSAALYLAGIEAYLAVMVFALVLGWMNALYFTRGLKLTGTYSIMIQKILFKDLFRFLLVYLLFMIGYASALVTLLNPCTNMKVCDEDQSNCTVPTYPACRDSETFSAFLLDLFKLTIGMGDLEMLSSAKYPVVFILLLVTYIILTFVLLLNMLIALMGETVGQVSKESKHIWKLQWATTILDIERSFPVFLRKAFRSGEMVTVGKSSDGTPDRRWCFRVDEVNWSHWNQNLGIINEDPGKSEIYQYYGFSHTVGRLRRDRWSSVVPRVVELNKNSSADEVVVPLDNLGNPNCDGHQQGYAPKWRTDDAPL

Row | SMILES | EC50 [1] [nM] | IC50 [2] [nM] | also measured
1 | O=[N+]([O-])c1cc(Cl)ccc1S(=O)(=O)N1CCN(Cc2ccccc2)CC1 | 770 | – | –
2 | CCCCC/C=C\C/C=C\C/C=C\CC1OC1CCCC(=O)O (stereo unspecified) | 150 | – | –
3 | N#Cc1ccc(OCC2(O)CN(S(=O)(=O)c3ccc(Cl)cc3Cl)C2)cc1F | – | – | IC50 [3]: 4 nM

Second part, led by results:

Row | EC50 [1] [nM] | IC50 [2] [nM] | SMILES | also measured
4 | – | 81800 | C/C=C(\C)[C@H]1C(C)=C[C@H]2C[C@@H](C)C[C@@H](C(=O)O)[C@@H]2[C@@]1(C)C(=O)c1cccnc1 | –
5 | – | 70000 | C/C=C/C=C/c1c(CC=C(C)C)cc(CC=C(C)C)c(O)c1CO | –
6 | – | 50.8 | C/C=C/C=C/c1c(CC=C(C)C)cc2c(c1[C@H](Nc1ccccc1C(=O)O)[C@H]1c3c(CC=C(C)C)cc4c(c3[C@@H]3OC(=O)c5ccccc5N3[C@H]1/C=C/C)OC(C)(C)[C@H](O)C4=O)OC(C)(C)[C@@H](O)C2=O (racemic) | –
